Experimental data reported in patent US20140088314A1, “BIFUNCTIONAL CHELATING AGENTS” (GENERAL ELECTRIC COMPANY, priority 2012, published 2014).

Columns and labels:
mammary MATBIII tumor = experiment: Dynamic contrast enhanced (DCE) MR tumor imaging; type: in vivo, SCID mice; settings: dose 0.2 mmol/kg Gd, Fe, mammary MBIII rodent tumor model
Description: Cell Preparation: MATBIII breast cells (available from ATCC®) were trypsinized using 1×trypsin-EDTA. The cells were washed using 1× phosphate buffered saline (PBS) and aliquots of 2×10^6 cells were made in 1×PBS (100 uL). Prior to injection into the subject, 50 μL of basement membrane matrix (Matrigel®, BD Biosciences) was added to each aliquot.
Tumor Induction: All procedures involving animals were completed under protocols approved by the GE Global Research Institutional Animal Care and Use Committee. Female, 5-7 weeks old, SCID mice (Charles River Laboratories) were briefly anesthetized with 2% isoflurane and injected with 1×10^6 MATBIII breast cancer cells in 1×PBS (100 μL) and Matrigel SC to their left flank. The animals were monitored for 7 days post tumor cell injections at which point, precontrast agent MR images of the resulting lesions, typically 1 cm in diameter, were collected using the sequences described below.

[1] = Hydrodynamic size assay (dynamic light scattering); type: physicochemical; settings: size printed beside agent name in Table 8
Description: The dilution was carried out to yield approximately 20,000 counts per second during the DLS measurement and the sample was allowed to equilibrate for 10 minutes in the instrument prior to data collection.

Q: Which “Tumor-to-muscle signal enhancement ratio, Tumor: Muscle, Average” value (mammary MATBIII tumor) does the source give for CNC[C@H](O)[C@@H](O)[C@H](O)[C@H](O)CO.CNC[C@H](O)[C@@H](O)[C@H](O)[C@H](O)CO.O=C([O-])CN(CCN(CC(=O)[O-])CC(=O)O)CCN(CC(=O)[O-])CC(=O)O.[Gd+3] [Magnevist - Gd] here?
A: The value was 3.6.

Q: What about the Agent size [1] of the same molecule?
A: Its Agent size is “Magnevist - Gd (1 nm)”.
